In experiment [1] the target is Bcl-2 Asp103Tyr mutant (Homo sapiens, UniProt P10415, D103Y). Put plainly: Fluorescence quenching assay (PUMA quench reagent displacement), Example 4. It is filed as binding. The settings on record: 50 nM peptide, about 2 hours at 18° C., ABT-199 inactive @1 μM. The text has this:
[…] […] […] […] […] […] […] […] […] […] […] […] […] […] […] […] […] […] […] […] […] […] […] […] […] […] […]

For experiment [2], the system named is KMS-12-PE Bcl-2 D103Y cells. Put plainly: In vitro cytotoxicity, CellTiter-Glo cell viability 72 h, Example 5. Type of experiment: cell-based. To be noted: Homo sapiens, read-out: KMS-12-PE Bcl-2 D103Y C50. The procedure: Cell lines were grown at 37° C. in a humidified atmosphere with 5% CO2 in media recommended by the suppliers. KMS-12-PE (ACC 606) from the Leibniz-Institute DSMZ (Braunschweig, Germany). Lentiviral particles containing Bcl-2 mutated on D103Y were cloned into pcLV-CMV-DEST-IRES-TagRFP. Lentiviral particles (1×10^6) were mixed with Polybrene at 8 μg/ml and transduced by spinoculation for 1 h at 32° C. and incubated overnight. TagRFP positive-KMS-12-PE cells were sorted by FACS after 8 days. Bcl-2 expression was monitored by immunoblotting using anti-Flag and anti-Bcl-2 antibodies. Cells were seeded into 96-well plates and treated at 9 points with 1:3.16 serial dilution of compounds. […] Results were normalized to the viability of cells without compounds (control wells). The C50 values were calculated using nonlinear Regression algorithms in XCell software.
On the technique in general: Cellular ATP, detected with luciferase, serves as a proxy for viable cell number.

For experiment [3], the system named is RS4;11 Bcl-2 G101V cells. The experiment is described as follows: In vitro cytotoxicity, CellTiter-Glo cell viability 72 h. Type of experiment: cell-based. The settings on record: Homo sapiens, read-out: RS4;11 Bcl-2 G101V C50. The procedure: (§1) Cell lines were grown at 37° C. in a humidified atmosphere with 5% CO2 in media recommended by the suppliers. RS4;11 (ATCC® CRL1873™) were purchased from American Type Culture Collection (ATCC) and KMS-12-PE (ACC 606) from the Leibniz-Institute DSMZ (Braunschweig, Germany). Lentiviral particles containing Bcl-2 wild-type (also named ‘Bcl-2 VT’) and Bcl-2 mutated on G101V (also named ‘Bcl-2 G101V’) were cloned into pcLV-CMV-DEST-IRES-TagRFP. Lentiviral particles (1×10^6) were mixed with Polybrene at 8 μg/ml and transduced by spinoculation for 1 h at 32° C. and incubated overnight. After 8 days for KMS-12-PE and 21 days for RS4;11, TagRFP positive-cells were sorted by FACS. BCL2 expression was monitored by immunoblotting using anti-Flag and anti-BCL2 antibodies. Cells were seeded into 96-well plates and treated with 1:3.16 serial dilution of compounds (9 different concentrations). […] Results were normalized to the viability of cells without compounds (control wells). The C50 values were calculated using nonlinear regression algorithms in XCell software.

Experiment [4] deals with KMS-12-PE Bcl-2 G101V cells. The experiment is described as above. Type of experiment: cell-based. To be noted: Homo sapiens, read-out: KMS-12-PE Bcl-2 G101V C50. The procedure: as §1
Experiment [5] relates to RS4;11 Bcl-2 WT cells. The description is as above. Type of experiment: cell-based. The settings on record: Homo sapiens, read-out: RS4;11 Bcl-2 WT C50. The method, then: as §1
Experiment [6] has as its system KMS-12-PE Bcl-2 WT cells. The experiment is described as above. The settings on record: Homo sapiens, read-out: KMS-12-PE Bcl-2 WT C50. Type of experiment: cell-based. The method, then: as §1

Bcl-2 Asp103Tyr mutant, sequence (P10415 with tags, fused parts or gaps D103Y): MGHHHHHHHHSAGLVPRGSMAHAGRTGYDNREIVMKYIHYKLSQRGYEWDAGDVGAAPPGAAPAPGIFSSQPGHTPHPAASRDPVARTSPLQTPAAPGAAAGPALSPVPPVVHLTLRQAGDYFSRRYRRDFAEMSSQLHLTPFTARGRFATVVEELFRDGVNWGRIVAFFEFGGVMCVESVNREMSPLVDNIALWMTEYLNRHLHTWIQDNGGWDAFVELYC

Regarding `CC1(C)CCC(CN2CCN(c3ccc(C(=O)NS(=O)(=O)c4ccc(NCC5CCOCC5)c([N+](=O)[O-])c4)c(Oc4cnc5[nH]ccc5c4)c3)CC2)=C(c2ccc(Cl)cc2)C1` [ABT-199, Venetoclax, reference compound], in experiment [1], the “Bel-2 Asp103Tyr mutant K1 mean” value was “inactive”. Further, the IC50 in experiment [2] was 1830 nM; in experiment [3] it was 130 nM; in experiment [4], 931 nM; in experiment [5], 10.7 nM; in experiment [6] it was 22.5 nM.
Consider `O=C(c1cc(-c2cc3c(cc2C(=O)N2Cc4ccccc4C[C@H]2CN2CCOCC2)OCO3)n2c1CCCC2)N(c1ccccc1)c1ccc(O)cc1` [Compound A, N-(4-hydroxyphenyl)-3-{6-[((3S)-3-(4-morpholinylmethyl)-3,4-dihydro-2(1H)-isoquinolinyl)carbonyl]-1,3-benzodioxol-5-yl}-N-phenyl-5,6,7,8-tetrahydro-1-indolizine carboxamide], for which the IC50 in experiment [3] came to 495 nM; in experiment [4], 961 nM; in experiment [5] it was 82.3 nM; in experiment [6], 57.3 nM.
With `Cc1c(N(C(=O)c2cc(-c3cc(Cl)ccc3C(=O)N3Cc4ccccc4C[C@H]3CN3CCOCC3)n(C)c2C)c2ccc(O)cc2)cc(C#N)n1C` [Compound B, 5-(5-chloro-2-{[(3S)-3-(morpholin-4-ylmethyl)-3,4-dihydroisoquinolin-2(1H)-yl]carbonyl}phenyl)-N-(5-cyano-1,2-dimethyl-1H-pyrrol-3-yl)-N-(4-hydroxyphenyl)-1,2-dimethyl-1H-pyrrole-3-carboxamide], the IC50 was found to be 83.7 nM in experiment [2]; 60.4 nM in experiment [3]; 179 nM in experiment [4]; 9.03 nM in experiment [5]; 21 nM in experiment [6].

(Values after patent US20220211718A1, “BCL-2 INHIBITORS FOR USE IN THE TREATMENT OF A BCL-2 MEDIATED CANCER CARRYING THE GLY101VAL MUTATION” (LES LABORATOIRES SERVIER, priority 2019, published 2022).)
